Measurements taken from article PMC3869726, “Inhibition of Human Neutrophil Elastase by Pentacyclic Triterpenes” (PLoS ONE, 2013).
Several values for one entry are separate records, joined by “and”; a condition that tells them apart may be missing. Equal entries are not always repeated.

Tests used:
HNE = molecular target: T1, HNE (Homo sapiens, UniProt P08246); experiment: 1H NMR spin-lattice relaxation rates (Rns, Rse) of ligand with and without HNE; assay type: binding; conditions: pH 7.0, 298 K;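 also: ligand in d6-DMSO with 50 mM phosphate buffer, selective and nonselective spin-lattice rates from an inversion-recovery pulse sequence, computed by initial-rate approximation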
T1 construct: HNE (EC 3.4.21.37) from human leukocytes was purchased; purchased Innovative Research Company (Novi, Michigan); host or cells: human leukocytes (natural source)
T1 sequence (P08246 30-247 limits assumed): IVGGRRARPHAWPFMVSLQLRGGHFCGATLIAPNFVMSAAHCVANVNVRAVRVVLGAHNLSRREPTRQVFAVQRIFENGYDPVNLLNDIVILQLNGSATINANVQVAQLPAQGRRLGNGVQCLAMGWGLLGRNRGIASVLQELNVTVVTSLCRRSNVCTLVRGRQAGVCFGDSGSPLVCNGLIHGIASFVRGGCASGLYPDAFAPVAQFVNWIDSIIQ

[1] = molecular target: T2, Human neutrophil elastase (HNE) (Homo sapiens, UniProt P08246); experiment: HNE activity inhibitory bioassay (MeO-Suc-Ala-Ala-Pro-Val-pNA hydrolysis, absorbance 405 nm); assay type: biochemical; conditions: for Anti-HNE activity, inhibitory ratio: n = 3; for IC50: in vitro HNE assay, read-out: IC50, HNE inhibition; for inhibition at 100 µM: tetracyclic triterpenoids (Table S3)
T2 construct: HNE (EC 3.4.21.37) from human leukocytes was purchased; purchased Innovative Research Company (Novi, Michigan); host or cells: human leukocytes (natural source)
T2 sequence (P08246 30-247 limits assumed): T1 sequence (P08246 30-247 limits assumed)

[2] = test system: acute smoke-induced airway inflammation in mice; experiment: Acute smoke-induced lung (airway) inflammation model in mice, BALF analysis
[3] = molecular target: T2, Human neutrophil elastase (HNE); experiment: Enzyme inhibition kinetic analysis of HNE (Michaelis-Menten / Lineweaver-Burk); assay type: biochemical
[4] = smoke exposure, 50 mg/kg intraperitoneal

Compound: C=C(C)[C@@H]1CC[C@]2(C(=O)O)CC[C@]3(C)[C@H](CC[C@@H]4[C@@]5(C)CC[C@H](O)C(C)(C)[C@@H]5CC[C@]43C)[C@@H]12 [Compound 5, betulinic acid]
- Rns/Rse, proton H13 (HNE; free ligand 1 mM): 1.51
- Rns/Rse, proton H19 (HNE; free ligand 1 mM): 0.82
- Rns/Rse, proton H24 (HNE; free ligand 1 mM): 1.02
- Rns/Rse, proton H29a (HNE; free ligand 1 mM): 0.96
- Rns/Rse, proton H29b (HNE; free ligand 1 mM): 0.97
- Rns/Rse, proton H13 (HNE; ligand 1 mM + HNE 5 µM): 0.97
- Rns/Rse, proton H19 (HNE; ligand 1 mM + HNE 5 µM): 0.79
- Rns/Rse, proton H24 (HNE; ligand 1 mM + HNE 5 µM): 0.95
- Rns/Rse, proton H29a (HNE; ligand 1 mM + HNE 5 µM): 0.95
- Rns/Rse, proton H29b (HNE; ligand 1 mM + HNE 5 µM): 0.96
- Anti-HNE activity, inhibitory ratio ([1]; 1 µM compound): 8.25±1.88%
- Anti-HNE activity, inhibitory ratio ([1]; 3 µM compound): 46.57±2.47 %
- Anti-HNE activity, inhibitory ratio ([1]; 10 µM compound): 74.20±2.32 %
- Anti-HNE activity, inhibitory ratio ([1]; 30 µM compound): 80.58±2.21 %
- Anti-HNE activity, inhibitory ratio ([1]; 30 µM compound, listed as betulinic acid): more than 80%
- Anti-HNE activity, inhibitory ratio ([1]; 100 µM compound): 82.41±1.37 %
- IC50 [1]: ~6.83 µM

Compound: CC(C)=CCCC(C)(OC1OC(CO)C(O)C(O)C1O)C1CCC2(C)C1C(O)CC1C3(C)CCC(O)C(C)(C)C3C(OC3OC(CO)C(O)C(O)C3OC3OC(C)C(O)C(O)C3O)CC12C (stereo not drawn) [Compound 8]
- inhibition at 100 µM [1]: 4.01%

Compound: CC(C)(O)[C@@H]1CC[C@](C)([C@H]2[C@@H](O)C[C@@]3(C)[C@@H]4C[C@H](O[C@@H]5O[C@H](CO)[C@@H](O)[C@H](O)[C@H]5O)[C@H]5C(C)(C)[C@@H](O[C@@H]6OC[C@@H](O)[C@H](O)[C@H]6O)CC[C@@]56C[C@@]46CC[C@]23C)O1 [Compound 7, astragaloside IV]
- levels of BALF NE and TNF-α in vivo ([2]; smoke exposure): did not observe the inhibitory effects
- airway inflammation ([2]; smoke exposure, intraperitoneal, negative control): did not inhibit
- inhibition at 100 µM [1]: 3.27%

Compound: C[C@H]1[C@H](C)CC[C@]2(C(=O)O)CC[C@]3(C)C(=CC[C@@H]4[C@@]5(C)CC[C@H](O)C(C)(C)[C@@H]5CC[C@]43C)[C@H]12 [Compound 1, ursolic acid]
- Rns/Rse, proton H3 (HNE; free ligand 1 mM): 0.93
- Rns/Rse, proton H12 (HNE; free ligand 1 mM): 0.88
- Rns/Rse, proton H18 (HNE; free ligand 1 mM): 0.92
- Rns/Rse, proton H3 (HNE; ligand 1 mM + HNE 5 µM): 0.73
- Rns/Rse, proton H12 (HNE; ligand 1 mM + HNE 5 µM): 0.62
- Rns/Rse, proton H18 (HNE; ligand 1 mM + HNE 5 µM): 0.81
- inhibition of the smoke-induced increase in BALF NE ([2]; 50 mg/kg intraperitoneal): 54%
- inhibition of the smoke-induced increase in BALF TNF-α ([2]; 50 mg/kg intraperitoneal): 38%
- dose with significant inhibition of BALF TNF-α ([2]; doses 10, 30, 100 mg/kg, dose-dependent): ≥ 10 mg/kg
- dose with significant inhibition of BALF NE ([2]; doses 10, 30, 100 mg/kg, dose-dependent, P<0.05): 30 mg/kg
- levels of BALF NE and TNF-α in vivo ([2]; smoke exposure): significantly suppressed
- number of neutrophils in BALF [2, 4]: significantly reduced
- number of total leukocytes in BALF [2, 4]: significantly reduced
- mode of HNE inhibition with respect to substrate ([3]; 0, 3, 10 µM ursolic acid, six substrate concentrations 0.2-2 mM, 37°C): competitively inhibits HNE
- apparent maximum velocity Vmax′, trend ([3]; as a function of ursolic acid concentration 0-10 µM, P>0.05): invariable
- apparent Michaelis-Menten constant Kapp, trend ([3]; ursolic acid increasing from 0 µM to 10 µM, P<0.05): increased
- Anti-HNE activity, inhibitory ratio ([1]; 1 µM compound): 12.22±6.64%
- Anti-HNE activity, inhibitory ratio ([1]; 1 µM compound, listed as Ursolic acid (1)): 12.2%
- Anti-HNE activity, inhibitory ratio ([1]; 3 µM compound): 36.47±5.75 %
- Anti-HNE activity, inhibitory ratio ([1]; 10 µM compound): 80.84±3.14 %
- Anti-HNE activity, inhibitory ratio ([1]; 30 µM compound): 82.98±5.67 %
- Anti-HNE activity, inhibitory ratio ([1]; 30 µM compound, listed as ursolic acid): more than 80%
- Anti-HNE activity, inhibitory ratio ([1]; 100 µM compound): 88.47±2.96 %
- IC50 [1]: 5.51 µM and ~5.51 µM

Compound: CC1(C)[C@@H](O[C@H]2O[C@H](C(=O)O)[C@@H](O)[C@H](O)[C@H]2O[C@@H]2O[C@H](C(=O)O)[C@@H](O)[C@H](O)[C@H]2O)CC[C@]2(C)[C@H]3C(=O)C=C4[C@@H]5C[C@@](C)(C(=O)O)CC[C@]5(C)CC[C@@]4(C)[C@]3(C)CC[C@@H]12 [Compound 4, glycyrrhizin]
- Rns/Rse, proton H9 (HNE; free ligand 1 mM): 0.64
- Rns/Rse, proton H12 (HNE; free ligand 1 mM): 0.87
- Rns/Rse, proton glc-H1’ (HNE; free ligand 1 mM): 0.54
- Rns/Rse, proton glc-H1” (HNE; free ligand 1 mM): 0.49
- Rns/Rse, proton H9 (HNE; ligand 1 mM + HNE 5 µM): 0.64
- Rns/Rse, proton H12 (HNE; ligand 1 mM + HNE 5 µM): 0.74
- Rns/Rse, proton glc-H1’ (HNE; ligand 1 mM + HNE 5 µM): 0.31
- Rns/Rse, proton glc-H1” (HNE; ligand 1 mM + HNE 5 µM): 0.47
- Anti-HNE activity, inhibitory ratio ([1]; 1 µM compound): 10.25±1.73%
- Anti-HNE activity, inhibitory ratio ([1]; 3 µM compound): 19.00±6.99 %
- Anti-HNE activity, inhibitory ratio ([1]; 10 µM compound): 28.21±4.84 %
- Anti-HNE activity, inhibitory ratio ([1]; 30 µM compound): 40.89±1.28 %
- Anti-HNE activity, inhibitory ratio ([1]; 100 µM compound): 78.66±1.99 %
- IC50 [1]: ~27.6 µM

Compound: COC(=O)[C@]12CCC(C)(C)C[C@H]1[C@H]1C(=O)C=C3[C@@]4(C)C=C(C#N)C(=O)C(C)(C)[C@@H]4CC[C@@]3(C)[C@]1(C)CC2 [CDDO-Me, C-28 methyl ester of 2-cyano-3,12-dioxoolen-1,9-dien-28-oic acid, reference compound]
- IC50 [1]: 16.6 µM

Compound: C=C(C)[C@@H]1CC[C@]2(C)CC[C@]3(C)[C@H](CC[C@@H]4[C@@]5(C)CC[C@H](O)C(C)(C)[C@@H]5CC[C@]43C)[C@@H]12 [Compound 6, lupeol]
- Rns/Rse, proton H13 (HNE; free ligand 1 mM): 1.67
- Rns/Rse, proton H19 (HNE; free ligand 1 mM): 1.03
- Rns/Rse, proton H24 (HNE; free ligand 1 mM): 1.03
- Rns/Rse, proton H29a (HNE; free ligand 1 mM): 1.23
- Rns/Rse, proton H29b (HNE; free ligand 1 mM): 1.24
- Rns/Rse, proton H13 (HNE; ligand 1 mM + HNE 5 µM): 1.27
- Rns/Rse, proton H19 (HNE; ligand 1 mM + HNE 5 µM): 1.00
- Rns/Rse, proton H24 (HNE; ligand 1 mM + HNE 5 µM): 1.03
- Rns/Rse, proton H29a (HNE; ligand 1 mM + HNE 5 µM): 1.23
- Rns/Rse, proton H29b (HNE; ligand 1 mM + HNE 5 µM): 1.22
- Anti-HNE activity, inhibitory ratio ([1]; 1 µM compound): 9.38±6.80%
- Anti-HNE activity, inhibitory ratio ([1]; 3 µM compound): 19.01±10.00 %
- Anti-HNE activity, inhibitory ratio ([1]; 10 µM compound): 51.92±15.22 %
- Anti-HNE activity, inhibitory ratio ([1]; 30 µM compound): 88.00±6.26 %
- Anti-HNE activity, inhibitory ratio ([1]; 30 µM compound, listed as lupeol): more than 80%
- Anti-HNE activity, inhibitory ratio ([1]; 100 µM compound): 93.56±1.19 %
- IC50 [1]: ~8.2 µM

Compound: CC(C)C1=CC(=O)C(C)(C2[C@H](O)C[C@@]3(C)[C@@H]4CC=C5[C@@H](CC[C@@H](OC6OCC(O)C(O)C6OC6OC(C)C(O)C(O)C6O)C5(C)C)[C@]4(C)C(=O)C[C@]23C)O1 (stereo partly drawn) [Compound 12]
- inhibition at 100 µM [1]: 0.8%

Compound: CC(C)=CCCC1(C)CCC2(C)C3CCC4(C)C(C)C(=O)CCC4C3(C)CCC2(C)C1 (stereo not drawn) [Compound 10]
- inhibition at 100 µM [1]: 2.33%

Compound: CC(=O)OC(C)(C)/C=C/C(=O)[C@](C)(O)[C@H]1[C@H](O)C[C@@]2(C)[C@@H]3CC=C4[C@@H](C[C@H](O)C(=O)C4(C)C)[C@]3(C)C(=O)C[C@]12C [Compound 9]
- inhibition at 100 µM [1]: 5.77%

Compound: CC(C)(C)C(=O)Oc1ccc(S(=O)(=O)Nc2ccccc2C(=O)NCC(=O)O)cc1 [ONO-5046, Sivelestat sodium hydrate, reference compound]
- smoke-induced increase in BALF inflammatory cells and proinflammatory cytokine levels ([2]; intraperitoneal, positive control): prevented

Compound: CC(=O)OC1CC(O)C23COC(O)C1(C)C2CC(O)C1(C)C3C(=O)C(OC(C)=O)C2(C)C(c3ccoc3)CC3OC321 (stereo not drawn) [Compound 11]
- inhibition at 100 µM [1]: 4.28%

Compound: CC1(C)[C@@H](O)CC[C@]2(C)[C@H]3C(=O)C=C4[C@@H]5C[C@@](C)(C(=O)O)CC[C@]5(C)CC[C@@]4(C)[C@]3(C)CC[C@@H]12 [Compound 3, glycyrrhetinic acid]
- Rns/Rse, proton H3 (HNE; free ligand 1 mM): 0.96
- Rns/Rse, proton H5 (HNE; free ligand 1 mM): 0.92
- Rns/Rse, proton H12 (HNE; free ligand 1 mM): 0.94
- Rns/Rse, proton H18 (HNE; free ligand 1 mM): 2.29
- Rns/Rse, proton H3 (HNE; ligand 1 mM + HNE 5 µM): 0.74
- Rns/Rse, proton H5 (HNE; ligand 1 mM + HNE 5 µM): 0.84
- Rns/Rse, proton H12 (HNE; ligand 1 mM + HNE 5 µM): 0.85
- Rns/Rse, proton H18 (HNE; ligand 1 mM + HNE 5 µM): 0.81
- Anti-HNE activity, inhibitory ratio ([1]; 1 µM compound): 0.06±6.40%
- Anti-HNE activity, inhibitory ratio ([1]; 3 µM compound): 1.05±5.24%
- Anti-HNE activity, inhibitory ratio ([1]; 10 µM compound): 21.09±4.96%
- Anti-HNE activity, inhibitory ratio ([1]; 30 µM compound): 45.84±0.41 %
- Anti-HNE activity, inhibitory ratio ([1]; 100 µM compound): 75.20±2.89 %
- IC50 [1]: ~36.9 µM
